# Source: PMC4311625, “Structural determinants for binding to angiotensin converting enzyme 2 (ACE2) and angiotensin receptors 1 and 2” (Frontiers in Pharmacology, 2015)
# What was measured:
# ACE2 [1] = target: T1, ACE2 (Homo sapiens, UniProt Q9BYF1); test: LC–MS ACE2 proteolytic cleavage assay; assay type: in vitro ADME; details: typically 4-5 h (5 h), LC–MS; for Cleavage (%) by ACE2, 10 μM: peptide 10 μM incubated with ACE2 at 37 °C; for Cleavage (%) by ACE2, 100 μM: peptide 100 μM incubated with ACE2 at 37 °C
# T1 sequence (Q9BYF1 18-805, species assumed): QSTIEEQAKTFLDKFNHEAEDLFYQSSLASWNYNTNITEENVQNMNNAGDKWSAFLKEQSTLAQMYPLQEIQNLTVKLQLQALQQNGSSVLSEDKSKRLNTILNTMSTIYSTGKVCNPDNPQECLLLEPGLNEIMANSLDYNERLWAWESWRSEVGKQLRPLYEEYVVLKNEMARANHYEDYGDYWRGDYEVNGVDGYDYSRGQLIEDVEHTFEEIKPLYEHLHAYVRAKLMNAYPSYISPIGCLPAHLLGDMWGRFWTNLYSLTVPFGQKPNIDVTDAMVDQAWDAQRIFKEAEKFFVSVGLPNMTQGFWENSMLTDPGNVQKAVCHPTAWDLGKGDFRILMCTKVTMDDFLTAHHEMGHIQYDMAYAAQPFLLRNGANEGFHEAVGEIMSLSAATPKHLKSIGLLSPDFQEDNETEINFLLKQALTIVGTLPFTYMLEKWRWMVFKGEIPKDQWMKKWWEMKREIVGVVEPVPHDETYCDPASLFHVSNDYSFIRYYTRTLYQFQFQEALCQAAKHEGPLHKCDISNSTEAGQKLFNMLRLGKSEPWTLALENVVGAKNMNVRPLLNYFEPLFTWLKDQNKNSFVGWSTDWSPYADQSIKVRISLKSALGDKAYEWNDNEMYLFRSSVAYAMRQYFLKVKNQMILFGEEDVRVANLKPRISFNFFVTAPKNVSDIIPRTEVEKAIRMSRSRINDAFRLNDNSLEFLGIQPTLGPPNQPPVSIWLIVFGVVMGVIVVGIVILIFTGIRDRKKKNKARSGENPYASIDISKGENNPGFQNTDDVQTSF
# Protocol: The first hour of the incubation was performed in the Fluorostar Optima plate reader in order to confirm previously observed level of inhibition, then for the remaining time the samples were transferred to small microfuge tubes and incubated in a water bath. The extent of ACE2 cleavage was assessed by LC–MS on an Agilent capillary HP1100, MSD VL3000 Ion-Trap system.
# ACE2 [2] = target: T1, ACE2; test: ACE2 quenched fluorescence substrate (QFS) inhibition assay; assay type: biochemical; details: QFS assay, pH 6.5, 37 °C, 1 h, value ± spread; for Inhibition (%) of ACE2, AngII chimeras, 1 μM: peptide 1 μM; for Inhibition (%) of ACE2, AngII chimeras, 10 μM: peptide 10 μM; for Inhibition (%) of ACE2, AngII chimeras, 100 μM: peptide 100 μM
# Protocol: Angiotensin converting enzyme 2 QFS assays were performed for 1 h in 50 uM QFS, 1 M NaCl, 100 mM Tris-Cl, pH 6.5 at 37∘C on a BMG LabTechnologies (Offenburg, Germany), FLUOStar Optima in a 96 well-plate. Subsequent data analysis determined the inhibition of native AngII, its analogs and C-terminal peptides compared to the ACE2 QFS substrate [MCA-APK(DNP)-OH, [Vickers et al., 2002]]. […] Three controls were included in each ACE2 QFS assay; AngII (100 and 10 μM), IHPF (100 μM) and a known ACE2 inhibitor (1 nM; Millennium Pharmaceuticals, Cambridge, MA, USA). QFS assay results were accepted when ACE2 inhibition by AngII (10 μM) was 80 ± 5%, IHPF was 65 ± –5% and the ([Qian et al., 1999]) ‘Millennium Inhibitor’ was 70 ± –5%. Acceptable coefficients of variation (CV; standard deviation/mean × 100) for sample triplicates were <7%.
# A library of 40 tetrapeptides based on the four C-terminal residues of Ang II (Ile-His-Pro-Phe/IHPF) was generated and screened for ACE2 binding at 100 μM in order to identify key residues of the C-terminus of Ang II involved in binding to the ACE2 active site. […] Several substitutions (Val, Tyr, Ala, Gly, Phe, Trp, Pro, His, Ile, and Leu) were made in order to further probe the highly hydrophobic and cyclic specificity of the C-terminus of Ang II. A β-napthalene amino acid (Nth) derivative was used as a highly hydrophobic non-natural cyclic residue substitute, and Arg and Lys were substituted for histidine at the second position from the N-terminus of the tetrapeptide to determine if positive charge or other structural or positional requirements were important.
# AT2R = test: Whole cell competition binding with [125I]-Ang II, AT2R-transfected HEK-293 cells; details: relative binding, displacement of 125I-Ang II in AT2R-transfected HEK-293 cells; 100 nM (Table 6)
# Protocol: The generation of plasmids expressing HA-tagged versions of the AT1R and AT2R have been previously described [Qian et al. (1999)], [D’Amore et al. (2005)]. HEK-293 cells in 12 well-plates were transfected with either AT1R or AT2R plasmids (0.6 μg/well) using lipofectAMINE (4⋅8 μl/well), as previously described [Thomas et al. (1998)] and stably expressing clones obtained by selection with G418 (1 mg/ml) and limiting dilution. HEK clones expressing either AT1R or AT2R were plated in 12 well-plates for whole cell competition binding assays using the non-selective Ang II ligand, [^125I]-Ang II and selected concentrations of Ang II, PD123319 (an AT2-selective ligand) and the various β-substituted Ang II peptides. Non-linear regression of the data was achieved using GraphPad Prism (GraphPad Software Inc., San Diego, CA, USA) to determine relative displacement of chimeric Ang II analogs as compared to ^125I-Ang II in either AT1R- or AT2R- transfected HEK-293 cells.
# AT1R = target: T2, AT1R (Rattus norvegicus, UniProt P25095); test: Whole cell competition binding with [125I]-Ang II, AT1R-transfected HEK-293 cells; details: relative binding, displacement of 125I-Ang II in AT1R-transfected HEK-293 cells; 100 nM (Table 6)
# T2 construct: HA; expressed in transfected cells
# T2 sequence (P25095 1-359): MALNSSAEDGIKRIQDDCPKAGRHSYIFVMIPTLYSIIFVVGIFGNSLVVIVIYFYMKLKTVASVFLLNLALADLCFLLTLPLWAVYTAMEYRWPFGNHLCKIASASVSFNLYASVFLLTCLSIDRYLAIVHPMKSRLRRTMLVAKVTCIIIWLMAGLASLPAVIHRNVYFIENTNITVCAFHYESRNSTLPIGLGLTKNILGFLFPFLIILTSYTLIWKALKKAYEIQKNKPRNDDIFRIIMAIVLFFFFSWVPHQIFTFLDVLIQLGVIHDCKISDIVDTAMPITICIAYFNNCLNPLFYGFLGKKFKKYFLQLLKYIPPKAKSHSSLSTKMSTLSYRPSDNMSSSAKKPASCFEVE
# Protocol: The generation of plasmids expressing HA-tagged versions of the AT1R and AT2R have been previously described [Qian et al. (1999)], [D’Amore et al. (2005)]. HEK-293 cells in 12 well-plates were transfected with either AT1R or AT2R plasmids (0.6 μg/well) using lipofectAMINE (4⋅8 μl/well), as previously described [Thomas et al. (1998)] and stably expressing clones obtained by selection with G418 (1 mg/ml) and limiting dilution.
"Cleavage (%) by ACE2, 10 μM (ACE2 [1]) [%]","Cleavage (%) by ACE2, 100 μM (ACE2 [1]; listed as DRVYI YPβF) [%]","Inhibition (%) of ACE2, AngII chimeras, 1 μM (ACE2 [2])","Inhibition (%) of ACE2, AngII chimeras, 10 μM (ACE2 [2])","Inhibition (%) of ACE2, AngII chimeras, 10 μM (ACE2 [2]; listed as DRVYI YPβF) [%]","Inhibition (%) of ACE2, AngII chimeras, 100 μM (ACE2 [2]) [%]",AT1R binding (%) (AT1R),"Cleavage (%) by ACE2, 100 μM (ACE2 [1]; listed as DRVYI YβPF) [%]","Cleavage (%) by ACE2, 100 μM (ACE2 [1]; listed as DRVY VYβPF) [%]",Substance,"Cleavage (%) by ACE2, 100 μM (ACE2 [1])",AT2R binding (%) (AT2R)
0 ± 0,0 ± 0,–1 ± 6.8%,completely abolished,0 ± 5,53 ± 1.9,30,–,–,DRVYIYPβF,complete resistance to proteolytic cleavage,25
0 ± 0,–,–4 ± 9.8%,10 ± 5.8%,–,72 ± 1.5,0,0 ± 0,–,DRVYIYβPF,complete resistance to proteolytic cleavage,80
–,–,2 ± 3.6%,15 ± 9%,–,59 ± 2.1,0,–,–,DRVYVYPβF,complete resistance to proteolytic cleavage,25
0 ± 0,–,0 ± 11.4%,42 ± 4.4%,–,90 ± 0.6,0,–,0 ± 0,DRVYVYβPF,complete resistance to proteolytic cleavage,75
